Results reported in patent US9051564B2, “Compositions for and methods of identifying antigens” (President and Fellows of Harvard College, priority 2006, dated 2015).
“Also recorded” adds a separate entry of the source.

Assays:
Assay type in all cases: cell-based, mouse
[1] = test system: spleen cells from NR1 TCR transgenic mice; assay: Proliferation of NR1 transgenic splenocytes in response to peptide ([3H]thymidine incorporation); conditions: spleen cells from naïve NR1 mice
Procedure: FIG. 16B is a graph showing proliferation of splenocytes from NR1 transgenic or non-transgenic mice in response to the indicated concentrations of Cta1133-152 (SEQ ID NO:2). Proliferation was measured by [^3H]thymidine incorporation into cells.
To determine whether the NR1 transgenic T cells were specific and responsive to Cta1, we tested the proliferation of transgenic spleen cells in response to Cta1133-152 (see FIG. 14; SEQ ID NO:2).

T cell clone NR9.2 [2] = assay: Epitope mapping: overlapping synthetic 20-mer Cta1 peptides tested for stimulating NR9.2 to secrete IFNγ (ELISA); conditions: for IFNγ measured: T cell line NR9.2, synthetic peptides at 25 μM
Description: FIG. 22 is a graph showing T cell clone NR9.2 recognizes the novel T cell antigen Cta1133-152 (SEQ ID NO:2). The antigenic peptide from Cta1 was mapped by testing overlapping 20-mer synthetic peptides for their ability to stimulate NR9.2 to secrete IFNγ. […] Shown below is the protein sequence of Cta1 (SEQ ID NO:1) with […] (SEQ ID NO:2) underlined.
To map more closely the epitope within Cta1 recognized by the NR9.2 T cells, a series of overlapping 20-mer peptides covering the Cta1 sequence for their ability to stimulate NR9.2 to secrete IFNγ were screened (Table 2).
Identification of the T cell antigen Cta1. An expression library of genomic sequences from C. trachomatis serovar D was inserted into a modified form of the pDEST17 vector (Invitrogen) and transformed into the Stb12 strain of E. coli (Invitrogen). Following induction of protein expression, the bacteria were fixed in 0.5% paraformaldehyde and incubated with BMMs. NR9.2 T cells were then added and after 24 h, the supernatant was tested for the level of IFNγ by ELISA (Endogen, Rockford, Ill.). To identify the reactive peptide epitope within Cta1, synthetic 20-mer peptides (MIT Biopolymers Lab, Cambridge, Mass.) were used at a concentration of 25 μM in an IFNγ ELISA (Endogen).

[3] = test system: spleen cells from NR1 TCR transgenic mice; assay: IFNγ secretion by NR1 spleen cells in response to peptide; conditions: data not shown
T cell clone NR9.2 [4] = assay: Screen of E. coli clones expressing C. trachomatis ORFs, cultured with BMMs and T cell clone NR9.2, IFNγ ELISA
Procedure: FIG. 15 is an image showing clones of E. coli expressing individual C. trachomatis ORFs cultured with BMMs and then incubated with the T cell clone NR9.2. […] E. coli expressing Cta1 (encoded by ORF CT788) induced NR9.2 to secrete high levels of IFNγ (>370 ng/ml) whereas E. coli expressing other Chlamydia proteins in the library induced only background levels of IFNγ secretion (<26 ng/ml). The well indicated as Cta1 and ELISA Standards are yellow; other wells are colorless. […] ELISA standards corresponding to high amounts of IFNγ are indicated.
Chlamydia specific CD4+ T cell clone. To identify a Chlamydia-specific TCR for the creation of TCR transgenic mice, we generated a Chlamydia-specific CD4^+ T cell clone named NR9.2. The clone specifically secreted IFNγ when co-cultured with Chlamydia-infected macrophages in an intracellular cytokine staining assay (FIG. 13A). […] A library of proteins expressed by the C. trachomatis ORFs contained in the genome database was screened. […] CT788 was annotated in the published C. trachomatis genome as a predicted periplasmic protein of unknown function (Stephens et al., Science 282:754-759, 1998), and its sequence shares little homology with proteins outside of the Chlamydia genus. CT788 was designated Cta1 (Chlamydia-specific T cell antigen-1).
Identification of the T cell antigen Cta1. […]

Molecule | IFNγ measured (T cell clone NR9.2 [2]) | further results
OVA323-336: control peptide from ovalbumin (KISQAVHAAHAEIN) [reference compound] |  | proliferation of NR1 spleen cells in response to peptide [1]: did not proliferate
VKNIPELSGTVKDESPSFLV [overlapping synthetic 20-mer peptide of Cta1] | 0.8 (±0.1) ng | 
KGIDPQELWVWKKGMPNWEK (listed as Chlamydia trachomatis) [20-mer peptide, amino acids 133-152 of Cta1 (CT788)] | 58.0 (±14.0) ng | proliferation of NR1 spleen cells in response to peptide [1]: strong proliferative response; IFNγ secretion by NR1 spleen cells in response to peptide [3]: secreted high levels of IFNγ; ability to stimulate NR9.2 to secrete IFNγ (in words) (T cell clone NR9.2 [2]; overlapping 20-mer peptides, listed as Cta1133-152): induced NR9.2 to secrete significant levels of IFNγ; also recorded: stimulated NR9.2 to secrete significant levels of IFNγ
GPISIVQLTAFLKECKHSPE [overlapping synthetic 20-mer peptide of Cta1] | 0.5 (±0.3) ng | 
SEIISIPDTMNQIAIDTEKW [overlapping synthetic 20-mer peptide of Cta1] | 0.6 (±0.2) ng | 
GCANKKNRNLIGWFLAGMFF [overlapping synthetic 20-mer peptide of Cta1] | 0.5 (±0.3) ng | 
NRSMDQQDSEEFLLQNTLED [overlapping synthetic 20-mer peptide of Cta1] | 0.6 (±0.3) ng | 
IGWFLAGMFFGIFAIIFLLI [overlapping synthetic 20-mer peptide of Cta1] | 0.6 (±0.3) ng | 
GIFAIIFLLILPPLPSSTQD [overlapping synthetic 20-mer peptide of Cta1] | 0.4 (±0.2) ng | 
EFLLQNTLEDSEIISIPDTM [overlapping synthetic 20-mer peptide of Cta1] | 0.6 (±0.2) ng | 
LPPLPSSTQDNRSMDQQDSE [overlapping synthetic 20-mer peptide of Cta1] | 0.6 (±0.2) ng | 
VKDESPSFLVQSGVAGLEQL [overlapping synthetic 20-mer peptide of Cta1] | 0.7 (±0.2) ng | 
QSGVAGLEQLESI [C-terminal overlapping synthetic peptide of Cta1] | 0.8 (±0.2) ng | 
FYLNKDYTNVGPISIVQLTA [overlapping synthetic 20-mer peptide of Cta1] | 0.7 (±0.4) ng | 
LESTSLYKKAGCANKKNRNL [overlapping synthetic 20-mer peptide of Cta1] | 0.4 (±0.2) ng | 
FLKECKHSPEKGIDPQELWV [overlapping synthetic 20-mer peptide of Cta1] | 0.5 (±0.4) ng | 
WKKGMPNWEKVKNIPELSGT [overlapping synthetic 20-mer peptide of Cta1] | 1.4 (±0.2) ng | 
NQIAIDTEKWFYLNKDYTNV [overlapping synthetic 20-mer peptide of Cta1] | 0.5 (±0.2) ng | 
Cta1: Chlamydia-specific T cell antigen-1, protein encoded by C. trachomatis ORF CT788; predicted periplasmic protein of unknown function (protein, listed as Chlamydia trachomatis) MNSGMFPFTFFLLYICLGMLTAYLANKKNRNLIGWFLAGMFFGIFAIIFLLILPPLPSSTQDNRSMDQQDSEEFLLQNTLEDSEIISIPDTMNQIAIDTEKWFYLNKDYTNVGPISIVQLTAFLKECKHSPEKGIDPQELWVWKKGMPNWEKVKNIPELSGTVKDE |  | stimulation of NR9.2 to secrete IFNγ (in words) (T cell clone NR9.2 [4]; 894 ORFs screened, E. coli expressing the protein): stimulated NR9.2 to secrete significant levels of IFNγ; IFNγ secreted by NR9.2 (T cell clone NR9.2 [4]; E. coli expressing the ORF, cultured with BMMs then NR9.2, supernatant IFNγ ELISA): > 370 ng/mL
